# Like-named read-outs stand apart in the source and are kept apart here.
# Assays:
# [1] = tested on: MRSA ATCC 43300; test: Galleria mellonella infection model; type: in vivo; settings: Staphylococcus aureus, 120 h; Galleria mellonella larvae infected with MRSA, survival over 5 days
# Experimental: The survival rate of Galleria mellonella was determined according to the literature with some modifications. Larvae of Galleria mellonella (16 per group) were injected with 10 μL of 10^8 CFU/mL MRSA inoculum into the last right proleg. Two hours after infection, larvae were injected with 10 μL of various doses (17.14, 25.71, 37.14, 57.14, and 85.71 mg/kg) of NPDM or tiamulin (used as reference drug) into the last left proleg. The larvae were maintained at 37 °C. Survival of the larvae was recorded daily for 5 days, and the ED50 was calculated.
# [2] = Acute oral toxicity in mice; type: in vivo; settings: for LD50 at 2 weeks: both sexes, mice, oral single dose; for LD50 at 2 weeks / Mortality / Mortality Rate: mouse, in vivo, po; for Mortality / Mortality Rate: both, 2 weeks
# Experimental: The acute oral toxicity of NPDM was evaluated according to the method reported in the literature. Mice were divided into 6 groups (10 animals each group, half male and half female) and were fasted for 12 h before the experiment. The NPDM was dissolved in DMSO and suspended in 0.5% sodium carboxymethyl cellulose solution. The volumes of suspension by oral gavages were 0.1 mL/10 g. The vehicle control group received DMSO without drug. All animals were observed twice daily for symptoms and mortality for two weeks. At the end of the study, all surviving animals were sacrificed.
# [3] = tested on: S. aureus ATCC 29213; test: MBC assay; type: cell-based; settings: Staphylococcus aureus, ATCC29213
# Experimental: (§1) Determination of MBCs refers to the minimum concentrations of antibacterial agents required to kill 99.9% of the test microorganisms after 24 h of incubation. After obtaining the MICs value, the 96-well plates were placed at 37 °C and incubated for 24 h. One hundred microliter aliquots of the bacterial suspensions were taken from the wells without visible bacterial growth and then plated onto MHA plates. […] The MBC assay was conducted at least in triplicate.
# [4] = tested on: S. aureus AD3 (clinical strain); test: MBC assay; type: cell-based; settings: Staphylococcus aureus
# Experimental: as §1
# [5] = tested on: S. aureus 144 (clinical strain); test: MBC assay; type: cell-based; settings: Staphylococcus aureus
# Experimental: as §1
# [6] = tested on: MRSA ATCC 43300; test: MBC assay; type: cell-based, Staphylococcus aureus
# Experimental: as §1
# [7] = tested on: BRL-3A cells; test: Cytotoxicity, MTT assay; type: cell-based; settings: Rattus norvegicus, 16 h, read-out: 50% inhibition concentration (IC50), cell viability
# Experimental: The cytotoxicity of NPDM was evaluated by the MTT assay as previously reported. Briefly, the medium containing 1 × 10^5 BRL-3A cells per 1 mL was seeded into a 96-well plate at 100 μL per well. After incubation for 48 h, media were replaced with 100 μL of serial dilutions of test compounds and incubated for 16 h. The absorbance (A) was measured at 490 nm by an automatic microplate reader (BIO-TEK Instrument Inc., Winooski, VT, USA). The cell viability was calculated according to Equation (1):(1) Cell viability (%) = (Asimple−Anegative)/(Apositive−Anegative)×100%
# A graph was constructed by plotting the inhibition percentage versus various concentrations of NPDM and tiamulin, from which the IC50 of NPDM or tiamulin was calculated. The measurement was repeated in triplicate.
# [8] = tested on: S. aureus ATCC 29213; test: Time-kill assay; type: cell-based, Staphylococcus aureus
# Experimental: (§2) The MRSA and S. aureus in the logarithmic phase were diluted to 10^6 CFU/mL with MHB. Then diverse concentrations of NPDM or tiamulin were added to the bacteria solution reaching the final concentration of 1 × MIC, 2 × MIC, 4 × MIC, and 8 × MIC, respectively. All bacterial inoculums were cultured at 37 °C with shaking. A total of 100 μL samples were taken from the subcultures at 0, 3, 6, 9, and 24 h, respectively, and continuously diluted 10-fold in sterile saline; then, 25 μL diluent was plated on the MHA plate. All plates were placed at 37 °C for 24 h. The total number of colonies on the plate was counted, and the results were expressed as log (CFU/mL).
# [9] = tested on: MRSA ATCC 43300; test: Time-kill assay; type: cell-based, Staphylococcus aureus
# Experimental: as §2
# [10] = tested on: MRSA ATCC 43300; test: Post-antibiotic effect (PAE) assay; type: cell-based, Staphylococcus aureus
# Experimental: The PAE was carried out as described in the literature. The MRSA was diluted to 10^6 CFU/mL in MHB. The NPDM or tiamulin was added into the bacteria solution at the final concentrations of 2 × MIC and 4 × MIC. Then all tubes were incubated at 37 °C for 1 h or 2 h. Each of the above inoculums was diluted 1000-fold with pre-warmed MHB to remove the test compounds and placed in a water bath at 37 °C immediately. One hundred microliters of suspension were taken from each culture, diluted 10-fold in sterile saline, and inoculated on MHA plates at 0, 1, 2, 4, and 6 h after inoculation. The total number comprising the colonies was counted after incubation at 37 °C for 20 h. The PAE was calculated referring to published methods. The experiment was performed in triplicate.
structure (smiles),measurement,setting,value
"C=C[C@]1(C)C[C@@H](OC(=O)CN2CCN(C(=O)CN3CCN(c4ccc([N+](=O)[O-])cc4)CC3)CC2)[C@]2(C)[C@H](C)CC[C@]3(CCC(=O)[C@H]32)[C@@H](C)[C@@H]1O [NPDM, 22-(4-(2-(4-nitrophenyl-piperazin-1-yl)-acetyl)-piperazin-1-yl)-22-deoxypleuromutilin]",ED50,[1],50.5 mg/kg
same,Acute toxicity classification,[2]; LD50 in the range of 501~5000 mg/kg,low-toxic compound
same,LD50 at 2 weeks,"[2]; modified Karber's formula, read-out: LD50",3760 mg/kg
same,LD50 at 2 weeks,[2]; read-out: LD50 95% confidence interval,3010 to 4710 mg/kg
same,Mortality,[2]; 987.65 mg/kg,1
same,Mortality Rate,[2]; 987.65 mg/kg,10%
same,Mortality,[2]; 1481.48 mg/kg,1
same,Mortality Rate,[2]; 1481.48 mg/kg,10%
same,Mortality,[2]; 2222.22 mg/kg,2
same,Mortality Rate,[2]; 2222.22 mg/kg,20%
same,Mortality,[2]; 3333.33 mg/kg,3
same,Mortality Rate,[2]; 3333.33 mg/kg,30%
same,Mortality,[2]; 5000 mg/kg,5
same,Mortality Rate,[2]; 5000 mg/kg,50%
same,MBC,[3],0.25 µg/mL
same,MBC,[4],0.5 µg/mL
same,MBC,[5],0.5 µg/mL
same,MBC,"[6]; Staphylococcus aureus, MRSA ATCC 43300",0.125 µg/mL
same,MBC/MIC value,[6]; against MRSA,one
same,IC50,[7],9.64 µg/mL
same,Concentration showing bacteriostatic effect,[8],≥ 2 × MIC
same,Time-kill activity at 2 × MIC,[9]; 2 × MIC,bactericidal activity
same,Concentration showing bactericidal activity (≥3 log10 CFU/mL decrease),[9]; after incubation for 24 h,≥ 2 × MIC
same,PAE,"[10]; 2 × MIC, exposure for 1 h",2.58 h
same,PAE,"[10]; 2 × MIC, exposure for 2 h",3.62 h
same,PAE,"[10]; 4 × MIC, exposure for 1 h",3.11 h
same,PAE,"[10]; 4 × MIC, exposure for 2 h",4.03 h
same,PAE longer than that of tiamulin,[10]; difference vs tiamulin,1~2 h

# Reference: article PMC8227856, “Antibacterial Activity of a Promising Antibacterial Agent: 22-(4-(2-(4-Nitrophenyl-piperazin-1-yl)-acetyl)-piperazin-1-yl)-22-deoxypleuromutilin” (Molecules, 2021)
